Active and inactive are the calls of the source. The rule behind the calls is not given here.
Legend:
PC-12 [1] = experiment: Neuroprotective activity against Abeta25-35-induced […] cells assessed as cell viability at 1 uM preincubated for 2 hrs prior Abeta25-35 challenge measured after 24 hrs by MTT assay; type: functional; conditions: Rattus norvegicus; for viability at 1 µM: read-out: Activity
PC-12 [2] = experiment: Cytotoxicity against […] cells at 10 uM after 24 hrs by MTT assay; type: cell-based; conditions: rat, pc-12, 24 h
PC-12 [3] = experiment: Neuroprotective activity against Abeta25-35-induced […] cells assessed as cell viability at 10 uM preincubated for 2 hrs prior Abeta25-35 challenge measured after 24 hrs by MTT assay; type: functional; conditions: Rattus norvegicus; for viability at 10 µM: read-out: Activity
PC-12 [4] = experiment: Cytotoxicity against […] cells at 1 uM after 24 hrs by MTT assay; type: cell-based; conditions: rat, pc-12, 24 h

| Compound | Activity (PC-12 [1]) | Activity (PC-12 [2]) | viability at 10 µM (PC-12 [3]) [%] | Activity (PC-12 [3]) | viability at 1 µM (PC-12 [1]) [%] | Activity (PC-12 [4]) |
| --- | --- | --- | --- | --- | --- | --- |
| C[C@]12CC[C@H]3[C@@H](C[C@@H]4O[C@@]45C[C@@H](O)CC[C@]35C)[C@@H]1CC[C@@H]2C(=O)/C=C/c1ccccn1 | inactive | Toxic | 29.7 |  |  |  |
| C[C@]12CC[C@H]3[C@@H](CC=C4C[C@@H](O)CC[C@@]43C)[C@@H]1CC[C@@H]2C(=O)/C=C/c1ccccc1 | inactive | Toxic | 29 |  |  |  |
| CC(C)c1ccc(/C=C/C(=O)[C@H]2CC[C@H]3[C@@H]4CC=C5C[C@@H](O)CC[C@]5(C)[C@H]4CC[C@]23C)cc1 | inactive | Toxic | 34.9 |  |  |  |
| CC(=O)[C@H]1CC[C@H]2[C@@H]3C[C@@H]4O[C@@]45C[C@@H](O)CC[C@]5(C)[C@H]3CC[C@]12C | inactive |  |  | inactive |  |  |
| C[C@]12CC[C@H]3[C@@H](C[C@@H]4O[C@@]45C[C@@H](O)CC[C@]35C)[C@@H]1CC[C@@H]2C(=O)/C=C/c1ccccc1Br | inactive |  | 61.2 |  |  |  |
| Cc1ccccc1/C=C/C(=O)[C@H]1CC[C@H]2[C@@H]3C[C@@H]4O[C@@]45C[C@@H](O)CC[C@]5(C)[C@H]3CC[C@]12C | inactive | Toxic | 49.9 |  |  |  |
| O=C(O[C@@H]1Cc2c(O)cc(O)cc2O[C@@H]1c1cc(O)c(O)c(O)c1)c1cc(O)c(O)c(O)c1 [EPIGALOCATECHIN GALLATE] |  |  | 65.4 |  |  |  |
| CCOc1ccc(/C=C/C(=O)[C@H]2CC[C@H]3[C@@H]4CC=C5C[C@@H](O)CC[C@]5(C)[C@H]4CC[C@]23C)cc1OC | inactive | Toxic | 26.7 |  |  |  |
| C[C@]12CC[C@H]3[C@@H](CC=C4C[C@@H](O)CC[C@@]43C)[C@@H]1CC[C@@H]2C(=O)/C=C/c1ccc(F)cc1 | inactive | Toxic | 32.6 |  |  |  |
| C[C@]12CC[C@H]3[C@@H](C[C@@H]4O[C@@]45C[C@@H](O)CC[C@]35C)[C@@H]1CC[C@@H]2C(=O)/C=C/c1cccc([N+](=O)[O-])c1 | inactive | Toxic | 31.3 |  |  |  |
| COc1ccc(/C=C/C(=O)[C@H]2CC[C@H]3[C@@H]4CC=C5C[C@@H](O)CC[C@]5(C)[C@H]4CC[C@]23C)cc1 | inactive | Toxic | 25.7 |  |  |  |
| C[C@]12CC[C@H]3[C@@H](CC=C4C[C@@H](O)CC[C@@]43C)[C@@H]1CC[C@@H]2C(=O)/C=C/c1ccccc1C(F)(F)F | inactive |  |  | inactive |  |  |
| C[C@]12CC[C@H]3[C@@H](CC=C4C[C@@H](O)CC[C@@]43C)[C@@H]1CC[C@@H]2C(=O)/C=C/c1cccc([N+](=O)[O-])c1 |  | Toxic | 37.8 |  | 51.2 | Toxic |
| COc1cccc(/C=C/C(=O)[C@H]2CC[C@H]3[C@@H]4CC=C5C[C@@H](O)CC[C@]5(C)[C@H]4CC[C@]23C)c1 |  | Toxic | 44 |  | 50.3 | Toxic |
| C[C@]12CC[C@H]3[C@@H](CC=C4C[C@@H](O)CC[C@@]43C)[C@@H]1CC[C@@H]2C(=O)/C=C/c1ccccn1 | inactive |  |  | inactive |  |  |
| CC(=O)[C@H]1CC[C@H]2[C@@H]3CC=C4C[C@@H](O)CC[C@]4(C)[C@H]3CC[C@]12C | inactive |  |  | inactive |  |  |

| Compound | Activity (PC-12 [1]) | Activity (PC-12 [2]) | viability at 10 µM (PC-12 [3]) [%] | Activity (PC-12 [3]) | viability at 1 µM (PC-12 [1]) [%] | Activity (PC-12 [4]) |
| --- | --- | --- | --- | --- | --- | --- |
| CCOc1ccccc1/C=C/C(=O)[C@H]1CC[C@H]2[C@@H]3CC=C4C[C@@H](O)CC[C@]4(C)[C@H]3CC[C@]12C | inactive |  |  | inactive |  |  |
| CCOc1ccc(/C=C/C(=O)[C@H]2CC[C@H]3[C@@H]4C[C@@H]5O[C@@]56C[C@@H](O)CC[C@]6(C)[C@H]4CC[C@]23C)cc1OC |  |  |  | inactive | 61.1 |  |
| C[C@]12CC[C@H]3[C@@H](C[C@@H]4O[C@@]45C[C@@H](O)CC[C@]35C)[C@@H]1CC[C@@H]2C(=O)/C=C/c1ccco1 | inactive |  | 82.7 |  |  |  |
| CC(C)c1ccc(/C=C/C(=O)[C@H]2CC[C@H]3[C@@H]4C[C@@H]5O[C@@]56C[C@@H](O)CC[C@]6(C)[C@H]4CC[C@]23C)cc1 | inactive | Toxic | 49.8 |  |  |  |
| C[C@]12CC[C@H]3[C@@H](CC=C4C[C@@H](O)CC[C@@]43C)[C@@H]1CC[C@@H]2C(=O)/C=C/c1ccc(Cl)cc1Cl | inactive | Toxic | 34.5 |  |  |  |
| C[C@]12CC[C@H]3[C@@H](C[C@@H]4O[C@@]45C[C@@H](O)CC[C@]35C)[C@@H]1CC[C@@H]2C(=O)/C=C/c1ccccc1 |  |  | 70.5 |  | 64.8 |  |
| C[C@]12CC[C@H]3[C@@H](C[C@@H]4O[C@@]45C[C@@H](O)CC[C@]35C)[C@@H]1CC[C@@H]2C(=O)/C=C/c1ccccc1F | inactive | Toxic | 36.7 |  |  |  |
| C[C@]12CC[C@H]3[C@@H](C[C@@H]4O[C@@]45C[C@@H](O)CC[C@]35C)[C@@H]1CC[C@@H]2C(=O)/C=C/c1ccc(Cl)cc1Cl | inactive | Toxic | 6 |  |  |  |
| C[C@]12CC[C@H]3[C@@H](C[C@@H]4O[C@@]45C[C@@H](O)CC[C@]35C)[C@@H]1CC[C@@H]2C(=O)/C=C/c1ccc(Cl)cc1 | inactive | Toxic | 39.1 |  |  |  |
| COc1cccc(/C=C/C(=O)[C@H]2CC[C@H]3[C@@H]4C[C@@H]5O[C@@]56C[C@@H](O)CC[C@]6(C)[C@H]4CC[C@]23C)c1 | inactive |  |  | inactive |  |  |
| C[C@]12CC[C@H]3[C@@H](C[C@@H]4O[C@@]45C[C@@H](O)CC[C@]35C)[C@@H]1CC[C@@H]2C(=O)/C=C/c1ccc(F)cc1 | inactive | Toxic | 47.6 |  |  |  |
| C[C@]12CC[C@H]3[C@@H](C[C@@H]4O[C@@]45C[C@@H](O)CC[C@]35C)[C@@H]1CC[C@@H]2C(=O)/C=C/c1ccccc1C(F)(F)F | inactive |  |  | inactive |  |  |
| COc1ccc(/C=C/C(=O)[C@H]2CC[C@H]3[C@@H]4C[C@@H]5O[C@@]56C[C@@H](O)CC[C@]6(C)[C@H]4CC[C@]23C)cc1 | inactive | Toxic | 29.6 |  |  |  |
| C[C@]12CC[C@H]3[C@@H](C[C@@H]4O[C@@]45C[C@@H](O)CC[C@]35C)[C@@H]1CC[C@@H]2C(=O)/C=C/c1ccc(C#N)cc1 | inactive |  |  | inactive |  |  |
| C[C@]12CC[C@H]3[C@@H](CC=C4C[C@@H](O)CC[C@@]43C)[C@@H]1CC[C@@H]2C(=O)/C=C/c1ccccc1Br | inactive |  |  | inactive |  |  |

Reference: ChEMBL document CHEMBL1955732, “Synthesis and biological evaluation of 21-arylidenepregnenolone derivatives as neuroprotective agents” (Bioorg Med Chem Lett, 2012)
